Read-outs that look alike come from different tables or passages of the source.
Columns and labels:
[1] = target: T1, human ETB receptor (Homo sapiens, UniProt P24530); assay: Binding Test #2: inhibition of 125I-ET-1 binding to ETB receptors (transfected COS7 cell membranes); conditions: read-out: ETB
T1 construct: expressed in transfected cells; host or cells: COS7 cells
T1 sequence (P24530 27-442): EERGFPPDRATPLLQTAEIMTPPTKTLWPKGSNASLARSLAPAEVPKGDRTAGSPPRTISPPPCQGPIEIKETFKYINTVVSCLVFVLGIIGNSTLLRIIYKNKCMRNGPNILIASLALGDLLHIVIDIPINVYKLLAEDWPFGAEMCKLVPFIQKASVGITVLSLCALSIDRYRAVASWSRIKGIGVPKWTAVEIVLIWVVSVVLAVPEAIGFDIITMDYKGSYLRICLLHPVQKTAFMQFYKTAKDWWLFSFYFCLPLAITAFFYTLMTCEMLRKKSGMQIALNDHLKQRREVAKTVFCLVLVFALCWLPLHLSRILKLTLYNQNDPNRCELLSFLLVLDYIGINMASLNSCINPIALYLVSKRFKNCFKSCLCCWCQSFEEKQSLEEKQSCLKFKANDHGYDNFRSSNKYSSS
Procedure, shortened: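 Competition with 125I-ET-1 for binding to membranes from COS7 cells transfected with human ETB receptor, used at 1 μg/50 μl binding buffer. Membranes prepared in HEPES pH 7.4 with aprotinin, including a DNase/MnCl2 step at 37 °C for 30 min.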

[2] = target: T2, human ETA receptors (Homo sapiens, UniProt P25101); assay: Binding Test #1: inhibition of 125I-ET-1 binding to ETA receptors (TE 671 cell membranes); conditions: read-out: ETA
T2 construct: endogenous in cells; host or cells: TE 671 cells (ATCC HTB 139)
T2 sequence (P25101 21-427): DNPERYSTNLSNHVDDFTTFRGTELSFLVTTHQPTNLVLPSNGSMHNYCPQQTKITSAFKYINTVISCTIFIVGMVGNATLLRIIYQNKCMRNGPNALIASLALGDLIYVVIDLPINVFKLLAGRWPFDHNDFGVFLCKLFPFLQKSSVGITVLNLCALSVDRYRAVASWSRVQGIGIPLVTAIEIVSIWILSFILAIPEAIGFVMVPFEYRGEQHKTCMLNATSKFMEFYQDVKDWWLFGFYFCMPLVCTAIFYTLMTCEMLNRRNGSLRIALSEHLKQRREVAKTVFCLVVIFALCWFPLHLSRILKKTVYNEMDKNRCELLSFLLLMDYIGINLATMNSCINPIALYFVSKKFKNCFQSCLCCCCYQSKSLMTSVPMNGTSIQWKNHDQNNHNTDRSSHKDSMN
Procedure, shortened: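 Radioligand competition in triplicate: ¹²⁵I-endothelin-1 displaced by test compound (1 nM–100 μM final) from ETA-bearing TE 671 cell membranes in HEPES pH 7.4 binding buffer with NaCl, MgCl2 and bacitracin. Incubation 16–18 h at 4 °C (or at 24 °C); 80 nM ET-1 defines nonspecific binding; pellet radioactivity gives percent inhibition.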

[3] = Table 1, † incubation at 24° C.
[4] = Table 2, † incubation at 24° C.

SMILES	IC50 [1, 3]	IC50 [2, 3]	IC50 ([1]; Table 1, incubation at 4° C.)	IC50 ([2]; Table 1, incubation at 4° C.)	further results
CCCc1cc2c(cc1OCc1ccsc1S(=O)(=O)Nc1onc(C)c1Br)OCO2 [N-(4-bromo-3-methyl-5-isoxazolyl)-3-{[2-propyl-4,5-(methylenedioxy)phenoxy]methyl}thiophene-2-sulfonamide]	1500 nM	~200 nM	–	–	–
CCCc1ccc(-c2csc(S(=O)(=O)Nc3onc(C)c3Br)c2)cc1 [N-(4-bromo-3-methyl-5-isoxazolyl)-4-(4-propylphenyl)thiophene-2-sulfonamide]	435 nM	962 nM	–	–	–
Cc1noc(NS(=O)(=O)c2cc(-c3ccc(C(C)C)cc3)cs2)c1Br [N-(4-bromo-3-methyl-5-isoxazolyl)-4-(4′-isopropylphenyl))thiophene-2-sulfonamide]	–	–	1300 nM	5500 nM	–
Cc1noc(NS(=O)(=O)c2cc(CCc3ccccc3)cs2)c1Br [N-(4-bromo-3-methyl-5-isoxazolyl)-4-(phenethyl)thiophene-2-sulfonamide]	–	–	3970 nM	6640 nM	–
Cc1noc(NS(=O)(=O)c2ccc(-c3ccccc3)cc2)c1Br [N-(4-bromo-3-methyl-5-isoxazolyl)-4-biphenylsulfonamide]	–	–	–	–	IC50 ([1]; Table 2, incubation at 4° C.): ~170 nM; IC50 [1, 4]: 1230 nM; IC50 ([2]; Table 2, incubation at 4° C.): 3300 nM; IC50 [2, 4]: 49000 nM
Cc1noc(NS(=O)(=O)c2cc(-c3ccccc3)cs2)c1Br [N-(4-bromo-3-methyl-5-isoxazolyl)-4-phenylthiophene-2-sulfonamide]	–	–	1170 nM	224 nM	–
Cc1noc(NS(=O)(=O)c2ccc(-c3cccc4ccccc34)s2)c1Br [N-(4-bromo-3-methyl-5-isoxazolyl)-5-(1-naphthyl)thiophene-2-sulfonamide]	1400 nM	14000 nM	–	–	–
CCCC#Cc1ccc(S(=O)(=O)Nc2onc(C)c2Br)s1 [N-(4-bromo-3-methyl-5-isoxazolyl)-5-(1-pentynyl)thiophene-2-sulfonamide]	5600 nM	29000 nM	–	–	–
COc1ccccc1-c1ccc(S(=O)(=O)Nc2onc(C)c2Br)s1 [N-(4-bromo-3-methyl-5-isoxazolyl)-5-(2-methoxyphenyl)thiophene-2-sulfonamide]	–	–	1100 nM	381 nM	–
Cc1ccc(-c2ccc(S(=O)(=O)Nc3onc(C)c3Br)s2)o1 [N-(4-bromo-3-methyl-5-isoxazolyl)-5-(2-methyfuranyl)thiophene-2-sulfonamide]	7500 nM	32000 nM	–	–	–
Cc1ccccc1-c1ccc(S(=O)(=O)Nc2onc(C)c2Br)s1 [N-(4-bromo-3-methyl-5-isoxazolyl)-5-(2-tolyl)thiophene-2-sulfonamide]	–	–	313 nM	432 nM	–
Cc1noc(NS(=O)(=O)c2ccc(-c3cccs3)s2)c1Br [N-(4-bromo-3-methyl-5-isoxazolyl)-5-(2′-thienyl)thiophene-2-sulfonamide]	–	–	363 nM	5100 nM	–
Cc1noc(NS(=O)(=O)c2ccc(C#CC(C)(C)C)s2)c1Br [N-(4-bromo-3-methyl-5-isoxazolyl)-5-(3,3-dimethylbutyn-1-yl)thiophene-2-sulfonamide]	35500 nM	7240 nM	24000 nM	1120 nM	–
Cc1noc(NS(=O)(=O)c2ccc(-c3cccc(N)c3)s2)c1Br [N-(4-bromo-3-methyl-5-isoxazolyl)-5-(3-aminophenyl)thiophene-2-sulfonamide]	2630 nM	1440 nM	1070 nM	537 nM	–
COc1cccc(-c2ccc(S(=O)(=O)Nc3onc(C)c3Br)s2)c1 [N-(4-bromo-3-methyl-5-isoxazolyl)-5-(3-methoxyphenyl)thiophene-2-sulfonamide]	4700 nM	23400 nM	776 nM	3260 nM	–
Cc1noc(NS(=O)(=O)c2ccc(-c3cccc([N+](=O)[O-])c3)s2)c1Br [N-(4-bromo-3-methyl-5-isoxazolyl)-5-(3-nitrophenyl)thiophene-2-sulfonamide]	4500 nM	26000 nM	–	–	–
Cc1noc(NS(=O)(=O)c2ccc(-c3ccsc3)s2)c1Br [N-(4-bromo-3-methyl-5-isoxazolyl)-5-(3-thienyl)thiophene-2-sulfonamide]	–	–	380 nM	4490 nM	–

Reference: patent US6683103B2, “Sulfonamides for treatment of endothelin-mediated disorders” (Texas Biotechnology Corporation, priority 1997, dated 2004)
